Assay results as given in patent US9126941B2, “Treatment of hyperproliferative disorders with diarylhydantoin compounds” (The Regents of the University of California, priority 2005, dated 2015).

Biological target: AR (Homo sapiens, UniProt P10275)
Assay: cell-based
Format: cell-based
Conditions: for IC50 (nM) Reporter: LNCaP-AR, 100 pM R1881, two days, No = did not inhibit AR response reporter
Description: The compounds were subjected to tests using an artificial AR response reporter system in a hormone refractory prostate cancer cell line. […] After two days of incubation, reporter activities were assayed.

AR, sequence (P10275 whole entry, looked up): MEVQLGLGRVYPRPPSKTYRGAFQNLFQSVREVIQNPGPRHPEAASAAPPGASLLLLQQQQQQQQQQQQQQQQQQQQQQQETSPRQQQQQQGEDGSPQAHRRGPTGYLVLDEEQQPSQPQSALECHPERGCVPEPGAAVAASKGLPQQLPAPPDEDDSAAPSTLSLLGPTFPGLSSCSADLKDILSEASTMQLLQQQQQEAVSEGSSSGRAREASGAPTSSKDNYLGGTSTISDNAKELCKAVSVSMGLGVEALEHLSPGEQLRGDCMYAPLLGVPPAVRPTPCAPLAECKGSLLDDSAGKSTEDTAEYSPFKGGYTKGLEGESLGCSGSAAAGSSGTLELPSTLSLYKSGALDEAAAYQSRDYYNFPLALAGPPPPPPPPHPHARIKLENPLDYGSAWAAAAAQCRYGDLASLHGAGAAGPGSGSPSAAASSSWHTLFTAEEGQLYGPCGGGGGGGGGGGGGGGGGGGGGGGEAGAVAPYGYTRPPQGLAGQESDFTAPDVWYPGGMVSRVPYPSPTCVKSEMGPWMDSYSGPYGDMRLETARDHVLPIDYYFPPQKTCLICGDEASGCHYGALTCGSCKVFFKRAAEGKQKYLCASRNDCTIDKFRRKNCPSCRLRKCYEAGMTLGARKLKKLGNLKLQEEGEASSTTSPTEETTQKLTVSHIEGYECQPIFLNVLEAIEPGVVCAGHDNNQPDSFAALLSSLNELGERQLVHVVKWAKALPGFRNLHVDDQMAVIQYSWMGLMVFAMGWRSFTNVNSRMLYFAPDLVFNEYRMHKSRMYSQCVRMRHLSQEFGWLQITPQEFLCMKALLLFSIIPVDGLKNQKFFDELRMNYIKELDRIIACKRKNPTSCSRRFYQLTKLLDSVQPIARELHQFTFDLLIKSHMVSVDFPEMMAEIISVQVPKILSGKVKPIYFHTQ

Structure (SMILES) | IC50 | IC50 (nM) Reporter
CC1(C)C(=O)N(c2ccc(C#N)c(C(F)(F)F)c2)C(=S)N1c1ccccc1 [Example 6-2, 4-[3-phenyl-4,4-dimethyl-5-oxo-2-thioxoimidazolidin-1-yl]-2-trifluoromethylbenzonitrile] | 149 nM | –
CC1(C)C(=O)N(c2ccc(C#N)c(C(F)(F)F)c2)C(=S)N1c1ccc(N)cc1 [RD9, 4-[3-(4-aminophenyl)-4,4-dimethyl-5-oxo-2-thioxoimidazolidin-1-yl]-2-trifluoromethylbenzonitrile] | 273 nM | –
CC1(C)C(=O)N(c2ccc(C#N)c(C(F)(F)F)c2)C(=S)N1c1ccc(OC(=O)CCl)cc1 [RD13, Chloroacetic acid 4-[3-(4-cyano-3-trifluoromethylphenyl)-5,5-dimethyl-4-oxo-2-thioxoimidazolidin-1-yl]phenyl ester] | 131 nM | –
Cc1ccc(N2C(=S)N(c3ccc(C#N)c(C(F)(F)F)c3)C(=O)C23CCCC3)cc1 [RD35, 4-(4-oxo-2-thioxo-1-(4-methylphenyl)-1,3-diazaspiro[4.4]non-3-yl)-2-trifluoromethylbenzonitrile] | 147 nM | –
Cc1ccc(N2C(=S)N(c3ccc(C#N)c(C(F)(F)F)c3)C(=O)C23CCCCC3)cc1 [RD48, 4-(4-oxo-2-thioxo-1-(4-methylphenyl)-1,3-diazaspiro[4.5]dec-3-yl)-2-trifluoromethylbenzonitrile] | 194 nM | –
CN1CCC2(CC1)NC(=S)N(c1ccc(C#N)c(C(F)(F)F)c1)C2=O [RD52, 4-(8-methyl-4-oxo-2-thioxo-1,3,8-triazaspiro[4.5]dec-3-yl)-2-trifluoromethylbenzonitrile, reference compound] | – | No
Cc1ccc(N2C(=S)N(c3ccc(C#N)c(C(F)(F)F)c3)C(=O)C23CCN(C)CC3)cc1 [RD53, 4-(8-methyl-4-oxo-2-thioxo-1-(4-methylphenyl)-1,3,8-triazaspiro[4.5]dec-3-yl)-2-trifluoromethylbenzonitrile] | 638 nM | –
N#Cc1ccc(N2C(=O)C3(CCCC3)N(c3ccc([N+](=O)[O-])cc3)C2=S)cc1C(F)(F)F [RD55, 4-[1-(4-nitrophenyl)-4-oxo-2-thioxo-1,3-diazaspiro[4.4]non-3-yl]-2-trifluoromethylbenzonitrile] | 498 nM | –
N#Cc1ccc(N2C(=O)C3(CCC3)N(c3ccc(-c4ccccc4)cc3)C2=S)cc1C(F)(F)F [RD57, 4-(8-oxo-6-thioxo-5-(4-biphenyl)-5,7-diazaspiro[3.4]oct-7-yl)-2-trifluoromethylbenzonitrile] | 283 nM | –
N#Cc1ccc(N2C(=O)C3(CCC3)N(c3ccc(O)cc3)C2=S)cc1C(F)(F)F [RD58, 4-(8-oxo-6-thioxo-5-(4-hydroxyphenyl)-5,7-diazaspiro[3.4]oct-7-yl)-2-trifluoromethylbenzonitrile] | 162 nM | –
CC1(C)C(=O)N(c2ccc(C#N)c(C(F)(F)F)c2)C(=S)N1c1ccccn1 [RD82, 4-[4,4-dimethyl-3-(4-pyridin-2-yl)-5-oxo-2-thioxoimidazolidin-1-yl]-2-trifluoromethylbenzonitrile] | 723 nM | –
Cc1ccnc(N2C(=S)N(c3ccc(C#N)c(C(F)(F)F)c3)C(=O)C2(C)C)c1 [RD83, 4-[4,4-dimethyl-3-(4-methylpyridin-2-yl)-5-oxo-2-thioxoimidazolidin-1-yl]-2-trifluoromethylbenzonitrile] | 457 nM | –
Cc1cc(N2C(=S)N(c3ccc(C#N)c(C(F)(F)F)c3)C(=O)C23CCC3)[nH]n1 [RD84, 4-[5-(5-methyl-2H-pyrazol-3-yl)-8-oxo-6-thioxo-5,7-diaza-spiro[3.4]oct-7-yl]-2-trifluoromethyl-benzonitrile, reference compound] | > 1000 nM | –
COC(=O)CCc1ccc(N2C(=S)N(c3ccc(C#N)c(C(F)(F)F)c3)C(=O)C23CCC3)cc1 [RD128, 3-{4-[7-(4-cyano-3-trifluoromethylphenyl)-8-oxo-6-thioxo-5,7-diazaspiro[3.4]oct-5-yl]-phenyl}-propionic acid methyl ester] | – | No
